Tests used:
Test in all cases: KINOMEscan competition binding
Details in all cases: compound 10.0 µM
[1] = molecular target: MAP2K2 (human) (UniProt P36507)
[2] = molecular target: CSNK1G2 (human) (UniProt P78368)
[3] = molecular target: CDK4 CCND1 (human) (UniProt P11802+P24385)
[4] = molecular target: PIM2 (human) (UniProt Q9P1W9)
[5] = molecular target: MERTK (human) (UniProt Q12866)
[6] = molecular target: MET (human) (UniProt P08581)
[7] = molecular target: CDC42BPG (human) (UniProt Q6DT37)
[8] = molecular target: PRKG2 (human) (UniProt Q13237)
[9] = molecular target: FGFR2 (human) (UniProt P21802)
[10] = molecular target: TLK1 (human) (UniProt Q9UKI8)
[11] = molecular target: SYK (human) (UniProt P43405)
[12] = molecular target: RET (human) (UniProt P07949)
[13] = molecular target: PRKAA2 (human) (UniProt P54646)
[14] = molecular target: AKT2 (human) (UniProt P31751)
[15] = molecular target: PIP5K1C (human) (UniProt O60331)
[16] = molecular target: EPHB3 (human) (UniProt P54753)
[17] = molecular target: STK36 (human) (UniProt Q9NRP7)
[18] = molecular target: SIK3 (human) (UniProt Q9Y2K2)
[19] = molecular target: SIK1 (human) (UniProt P57059)
[20] = molecular target: ZAP70 (human) (UniProt P43403)
[21] = molecular target: PRKD2 (human) (UniProt Q9BZL6)
[22] = molecular target: TESK1 (human) (UniProt Q15569)
[23] = molecular target: FLT1 (human) (UniProt P17948)
[24] = molecular target: TBK1 (human) (UniProt Q9UHD2)
[25] = molecular target: MKNK2 (human) (UniProt Q9HBH9)
[26] = molecular target: HCK (human) (UniProt P08631)
[27] = molecular target: PIK3CD (human) (UniProt O00329)
[28] = molecular target: PIM1 (human) (UniProt P11309)
[29] = molecular target: EPHB1 (human) (UniProt P54762)
[30] = molecular target: CLK4 (human) (UniProt Q9HAZ1)
[31] = molecular target: HIPK2 (human) (UniProt Q9H2X6)
[32] = molecular target: TTK (human) (UniProt P33981)
[33] = molecular target: CDK7 (human) (UniProt P50613)
[34] = molecular target: KIT (human) (UniProt P10721)
[35] = molecular target: RPS6KA2 KD2 (human) (UniProt Q15349)
[36] = tested on: LRRK2 (human), Q5S007 [G2019S]
[37] = molecular target: STK38L (human) (UniProt Q9Y2H1)
[38] = molecular target: TAOK2 (human) (UniProt Q9UL54)
[39] = molecular target: MYLK (human) (UniProt Q15746)
[40] = molecular target: PLK1 (human) (UniProt P53350)

Chain of AKT2 (human) (P31751 whole entry, looked up): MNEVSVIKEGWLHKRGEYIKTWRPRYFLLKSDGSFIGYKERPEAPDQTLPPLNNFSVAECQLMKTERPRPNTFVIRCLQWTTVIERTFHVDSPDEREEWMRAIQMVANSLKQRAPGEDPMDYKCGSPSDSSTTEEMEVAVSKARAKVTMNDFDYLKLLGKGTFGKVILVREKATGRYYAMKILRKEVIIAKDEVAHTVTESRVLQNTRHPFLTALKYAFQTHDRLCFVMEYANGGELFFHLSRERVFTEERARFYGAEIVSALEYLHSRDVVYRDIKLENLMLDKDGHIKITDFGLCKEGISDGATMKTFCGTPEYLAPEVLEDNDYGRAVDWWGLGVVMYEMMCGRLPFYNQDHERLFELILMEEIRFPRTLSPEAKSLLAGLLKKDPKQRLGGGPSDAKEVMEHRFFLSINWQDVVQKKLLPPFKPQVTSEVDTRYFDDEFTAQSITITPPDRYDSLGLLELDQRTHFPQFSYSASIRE
Chain of PIP5K1C (human) (O60331 whole entry, looked up): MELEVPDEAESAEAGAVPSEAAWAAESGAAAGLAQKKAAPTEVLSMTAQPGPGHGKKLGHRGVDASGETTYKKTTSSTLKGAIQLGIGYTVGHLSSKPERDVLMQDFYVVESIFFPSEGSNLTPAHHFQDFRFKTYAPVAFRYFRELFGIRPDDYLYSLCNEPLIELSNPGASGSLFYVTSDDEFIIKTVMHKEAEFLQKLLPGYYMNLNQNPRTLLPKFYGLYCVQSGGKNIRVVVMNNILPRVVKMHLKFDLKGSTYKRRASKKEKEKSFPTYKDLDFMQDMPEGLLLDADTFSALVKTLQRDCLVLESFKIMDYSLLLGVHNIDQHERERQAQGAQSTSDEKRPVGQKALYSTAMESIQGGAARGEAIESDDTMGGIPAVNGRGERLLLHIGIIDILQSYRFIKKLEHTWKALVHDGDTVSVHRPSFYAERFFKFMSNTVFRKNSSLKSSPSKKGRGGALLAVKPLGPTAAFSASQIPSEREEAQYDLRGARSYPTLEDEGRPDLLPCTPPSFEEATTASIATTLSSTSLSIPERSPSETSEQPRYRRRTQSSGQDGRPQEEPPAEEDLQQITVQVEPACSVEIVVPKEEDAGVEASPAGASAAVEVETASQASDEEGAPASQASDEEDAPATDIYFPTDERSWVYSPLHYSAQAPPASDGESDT
Chain of EPHB1 (human) (P54762 whole entry, looked up): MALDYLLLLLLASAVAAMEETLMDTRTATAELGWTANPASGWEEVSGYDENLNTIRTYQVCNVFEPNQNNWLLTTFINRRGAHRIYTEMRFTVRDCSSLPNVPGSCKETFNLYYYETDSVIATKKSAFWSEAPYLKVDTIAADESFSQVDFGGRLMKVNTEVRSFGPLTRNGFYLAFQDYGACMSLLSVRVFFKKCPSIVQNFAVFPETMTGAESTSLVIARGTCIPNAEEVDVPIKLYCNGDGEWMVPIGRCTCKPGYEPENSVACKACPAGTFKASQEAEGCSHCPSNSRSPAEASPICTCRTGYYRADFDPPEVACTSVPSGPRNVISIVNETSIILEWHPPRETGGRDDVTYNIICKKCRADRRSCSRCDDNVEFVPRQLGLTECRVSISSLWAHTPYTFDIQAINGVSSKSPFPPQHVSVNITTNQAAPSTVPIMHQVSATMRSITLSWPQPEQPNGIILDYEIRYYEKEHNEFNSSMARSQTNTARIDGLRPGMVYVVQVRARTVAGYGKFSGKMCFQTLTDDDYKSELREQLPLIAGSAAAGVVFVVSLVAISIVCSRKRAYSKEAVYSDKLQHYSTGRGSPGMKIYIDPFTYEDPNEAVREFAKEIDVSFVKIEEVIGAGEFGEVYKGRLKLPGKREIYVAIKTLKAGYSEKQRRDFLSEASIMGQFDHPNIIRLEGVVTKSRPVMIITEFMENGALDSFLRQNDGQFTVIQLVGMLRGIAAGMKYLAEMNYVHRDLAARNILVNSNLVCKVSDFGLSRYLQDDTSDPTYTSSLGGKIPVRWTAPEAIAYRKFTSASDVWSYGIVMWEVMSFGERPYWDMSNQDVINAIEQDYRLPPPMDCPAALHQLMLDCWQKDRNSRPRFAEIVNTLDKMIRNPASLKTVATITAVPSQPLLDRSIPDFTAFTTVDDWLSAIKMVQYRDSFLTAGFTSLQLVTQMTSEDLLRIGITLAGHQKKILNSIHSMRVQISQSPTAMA
Chain of MAP2K2 (human) (P36507 whole entry, looked up): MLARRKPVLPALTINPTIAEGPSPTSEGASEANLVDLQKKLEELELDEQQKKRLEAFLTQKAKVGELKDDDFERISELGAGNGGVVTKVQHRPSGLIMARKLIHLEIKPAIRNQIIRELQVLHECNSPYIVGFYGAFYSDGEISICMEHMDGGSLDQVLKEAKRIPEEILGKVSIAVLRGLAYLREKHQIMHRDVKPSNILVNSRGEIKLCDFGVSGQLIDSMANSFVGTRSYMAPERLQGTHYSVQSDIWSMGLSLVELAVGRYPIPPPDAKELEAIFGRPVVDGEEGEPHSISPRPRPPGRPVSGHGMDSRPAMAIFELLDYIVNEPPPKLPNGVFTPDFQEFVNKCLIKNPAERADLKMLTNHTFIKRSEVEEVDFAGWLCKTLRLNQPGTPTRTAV
Chain of RET (human) (P07949 whole entry, looked up): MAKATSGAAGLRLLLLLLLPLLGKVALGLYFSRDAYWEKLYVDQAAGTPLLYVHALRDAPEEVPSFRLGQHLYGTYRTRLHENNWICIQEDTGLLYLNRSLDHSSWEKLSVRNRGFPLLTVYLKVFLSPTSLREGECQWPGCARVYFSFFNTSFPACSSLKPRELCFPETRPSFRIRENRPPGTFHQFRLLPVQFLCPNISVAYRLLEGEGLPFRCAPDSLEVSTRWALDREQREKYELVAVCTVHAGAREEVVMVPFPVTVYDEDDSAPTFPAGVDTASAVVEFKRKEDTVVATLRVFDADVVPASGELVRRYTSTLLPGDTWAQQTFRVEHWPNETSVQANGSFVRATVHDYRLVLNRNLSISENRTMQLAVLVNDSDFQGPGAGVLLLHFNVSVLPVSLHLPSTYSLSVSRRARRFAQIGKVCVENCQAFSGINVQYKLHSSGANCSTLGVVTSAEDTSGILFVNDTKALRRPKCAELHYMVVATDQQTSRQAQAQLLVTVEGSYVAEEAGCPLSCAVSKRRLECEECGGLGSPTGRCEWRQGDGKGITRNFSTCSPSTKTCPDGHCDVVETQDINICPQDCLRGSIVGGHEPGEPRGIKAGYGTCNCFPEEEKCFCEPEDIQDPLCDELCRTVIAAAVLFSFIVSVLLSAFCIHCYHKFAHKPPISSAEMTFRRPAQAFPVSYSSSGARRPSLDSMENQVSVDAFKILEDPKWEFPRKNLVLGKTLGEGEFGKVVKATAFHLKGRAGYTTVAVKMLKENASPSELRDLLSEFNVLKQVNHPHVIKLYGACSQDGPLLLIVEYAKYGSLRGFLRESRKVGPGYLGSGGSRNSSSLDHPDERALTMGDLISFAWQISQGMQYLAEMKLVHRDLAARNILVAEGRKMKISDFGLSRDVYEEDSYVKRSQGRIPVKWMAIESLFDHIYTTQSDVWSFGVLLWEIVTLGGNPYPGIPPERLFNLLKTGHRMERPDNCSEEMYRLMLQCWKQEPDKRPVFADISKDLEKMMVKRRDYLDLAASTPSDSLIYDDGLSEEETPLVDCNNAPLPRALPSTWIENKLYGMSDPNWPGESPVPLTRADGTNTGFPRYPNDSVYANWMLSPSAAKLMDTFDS
Chain of CDK4 CCND1 (human) (P11802 whole entry, looked up): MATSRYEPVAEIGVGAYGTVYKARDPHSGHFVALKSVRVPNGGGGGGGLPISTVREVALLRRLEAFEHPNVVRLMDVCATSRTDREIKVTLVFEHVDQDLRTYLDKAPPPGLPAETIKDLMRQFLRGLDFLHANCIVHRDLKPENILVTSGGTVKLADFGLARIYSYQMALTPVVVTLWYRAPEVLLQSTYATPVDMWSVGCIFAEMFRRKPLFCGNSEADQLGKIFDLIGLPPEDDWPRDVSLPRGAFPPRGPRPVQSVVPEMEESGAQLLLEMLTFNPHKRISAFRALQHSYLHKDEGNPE
Chain of CDK4 CCND1 (human) (P24385 whole entry, looked up): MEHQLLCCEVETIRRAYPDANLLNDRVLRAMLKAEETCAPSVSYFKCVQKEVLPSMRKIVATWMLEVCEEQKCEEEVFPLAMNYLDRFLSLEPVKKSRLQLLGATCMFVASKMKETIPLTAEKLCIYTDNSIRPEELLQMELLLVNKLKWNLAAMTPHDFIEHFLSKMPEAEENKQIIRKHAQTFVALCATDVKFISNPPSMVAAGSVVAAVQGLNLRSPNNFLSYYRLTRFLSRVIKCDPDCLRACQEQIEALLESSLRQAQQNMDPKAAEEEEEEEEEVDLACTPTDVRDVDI
Chain of CDK7 (human) (P50613 whole entry, looked up): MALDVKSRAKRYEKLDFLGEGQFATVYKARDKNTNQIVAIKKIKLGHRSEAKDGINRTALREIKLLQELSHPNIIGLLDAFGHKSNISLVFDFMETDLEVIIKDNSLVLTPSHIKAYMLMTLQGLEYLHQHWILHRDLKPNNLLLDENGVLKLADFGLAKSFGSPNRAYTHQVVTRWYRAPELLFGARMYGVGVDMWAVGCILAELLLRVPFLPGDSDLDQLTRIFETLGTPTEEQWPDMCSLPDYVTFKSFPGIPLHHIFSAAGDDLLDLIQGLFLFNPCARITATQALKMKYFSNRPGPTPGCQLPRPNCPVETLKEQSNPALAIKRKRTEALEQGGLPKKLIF
Chain of PIM1 (human) (P11309 whole entry, looked up): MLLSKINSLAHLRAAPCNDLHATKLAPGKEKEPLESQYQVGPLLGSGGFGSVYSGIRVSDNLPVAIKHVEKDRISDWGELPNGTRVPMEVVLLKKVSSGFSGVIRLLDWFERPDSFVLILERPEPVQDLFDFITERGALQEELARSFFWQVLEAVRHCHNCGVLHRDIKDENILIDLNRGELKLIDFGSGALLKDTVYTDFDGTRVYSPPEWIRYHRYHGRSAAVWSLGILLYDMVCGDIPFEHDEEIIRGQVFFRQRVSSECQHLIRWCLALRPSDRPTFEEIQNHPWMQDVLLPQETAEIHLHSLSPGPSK

Compound: N#C/C(=C1/Nc2ccccc2S1)c1ccnc(NCCc2cccnc2)n1
- kinase still bound, per cent of control [1]: 17%
- kinase still bound, per cent of control [2]: 77%
- kinase still bound, per cent of control [3]: 32%
- kinase still bound, per cent of control [4]: 20%
- kinase still bound, per cent of control [5]: 100%
- kinase still bound, per cent of control [6]: 98%
- kinase still bound, per cent of control [7]: 89%
- kinase still bound, per cent of control [8]: 81%
- kinase still bound, per cent of control [9]: 100%
- kinase still bound, per cent of control [10]: 57%
- kinase still bound, per cent of control [11]: 100%
- kinase still bound, per cent of control [12]: 100%
- kinase still bound, per cent of control [13]: 100%
- kinase still bound, per cent of control [14]: 89%
- kinase still bound, per cent of control [15]: 8.2%
- kinase still bound, per cent of control [16]: 100%
- kinase still bound, per cent of control [17]: 100%
- kinase still bound, per cent of control [18]: 100%
- kinase still bound, per cent of control [19]: 100%
- kinase still bound, per cent of control [20]: 100%
- kinase still bound, per cent of control [21]: 100%
- kinase still bound, per cent of control [22]: 87%
- kinase still bound, per cent of control [23]: 100%
- kinase still bound, per cent of control [24]: 81%
- kinase still bound, per cent of control [25]: 0.5%
- kinase still bound, per cent of control [26]: 100%
- kinase still bound, per cent of control [27]: 78%
- kinase still bound, per cent of control [28]: 4.4%
- kinase still bound, per cent of control [29]: 100%
- kinase still bound, per cent of control [30]: 29%
- kinase still bound, per cent of control [31]: 1.4%
- kinase still bound, per cent of control [32]: 62%
- kinase still bound, per cent of control [33]: 16%
- kinase still bound, per cent of control [34]: 31%
- kinase still bound, per cent of control [35]: 56%
- kinase still bound, per cent of control [36]: 74%
- kinase still bound, per cent of control [37]: 100%
- kinase still bound, per cent of control [38]: 45%
- kinase still bound, per cent of control [39]: 66%
- kinase still bound, per cent of control [40]: 72%

Compound: CCCS(=O)(=O)Nc1ccc(F)c(C(=O)c2c[nH]c3ncc(Cl)cc23)c1F
- kinase still bound, per cent of control [1]: 1%
- kinase still bound, per cent of control [3]: 64%
- kinase still bound, per cent of control [4]: 80%
- kinase still bound, per cent of control [5]: 94%
- kinase still bound, per cent of control [6]: 77%
- kinase still bound, per cent of control [7]: 74%
- kinase still bound, per cent of control [8]: 93%
- kinase still bound, per cent of control [9]: 59%
- kinase still bound, per cent of control [10]: 58%
- kinase still bound, per cent of control [11]: 100%
- kinase still bound, per cent of control [12]: 76%
- kinase still bound, per cent of control [13]: 46%
- kinase still bound, per cent of control [14]: 68%
- kinase still bound, per cent of control [15]: 79%
- kinase still bound, per cent of control [16]: 100%
- kinase still bound, per cent of control [17]: 18%
- kinase still bound, per cent of control [18]: 100%
- kinase still bound, per cent of control [19]: 2.6%
- kinase still bound, per cent of control [20]: 85%
- kinase still bound, per cent of control [21]: 100%
- kinase still bound, per cent of control [22]: 13%
- kinase still bound, per cent of control [23]: 28%
- kinase still bound, per cent of control [24]: 100%
- kinase still bound, per cent of control [25]: 84%
- kinase still bound, per cent of control [26]: 19%
- kinase still bound, per cent of control [27]: 84%
- kinase still bound, per cent of control [28]: 77%
- kinase still bound, per cent of control [29]: 100%
- kinase still bound, per cent of control [30]: 51%
- kinase still bound, per cent of control [31]: 20%
- kinase still bound, per cent of control [32]: 60%
- kinase still bound, per cent of control [33]: 69%
- kinase still bound, per cent of control [34]: 0.1%
- kinase still bound, per cent of control [35]: 94%
- kinase still bound, per cent of control [36]: 38%
- kinase still bound, per cent of control [37]: 71%
- kinase still bound, per cent of control [38]: 43%
- kinase still bound, per cent of control [39]: 79%
- kinase still bound, per cent of control [40]: 100%

Compound: CC1=C(C(=O)Nc2cc3cn[nH]c3cc2F)C(c2ccc(C(F)(F)F)cc2)CC(=O)N1 (stereo not drawn)
- kinase still bound, per cent of control [1]: 64%
- kinase still bound, per cent of control [2]: 100%
- kinase still bound, per cent of control [3]: 71%
- kinase still bound, per cent of control [4]: 100%
- kinase still bound, per cent of control [5]: 91%
- kinase still bound, per cent of control [6]: 51%
- kinase still bound, per cent of control [7]: 83%
- kinase still bound, per cent of control [8]: 29%
- kinase still bound, per cent of control [9]: 95%
- kinase still bound, per cent of control [10]: 90%
- kinase still bound, per cent of control [11]: 100%
- kinase still bound, per cent of control [12]: 20%
- kinase still bound, per cent of control [13]: 25%
- kinase still bound, per cent of control [14]: 64%
- kinase still bound, per cent of control [15]: 92%
- kinase still bound, per cent of control [16]: 84%
- kinase still bound, per cent of control [17]: 96%
- kinase still bound, per cent of control [18]: 94%
- kinase still bound, per cent of control [19]: 77%
- kinase still bound, per cent of control [20]: 100%
- kinase still bound, per cent of control [21]: 76%
- kinase still bound, per cent of control [22]: 92%
- kinase still bound, per cent of control [23]: 77%
- kinase still bound, per cent of control [24]: 82%
- kinase still bound, per cent of control [25]: 62%
- kinase still bound, per cent of control [26]: 41%
- kinase still bound, per cent of control [27]: 98%
- kinase still bound, per cent of control [28]: 88%
- kinase still bound, per cent of control [29]: 91%
- kinase still bound, per cent of control [30]: 100%
- kinase still bound, per cent of control [31]: 87%
- kinase still bound, per cent of control [32]: 100%
- kinase still bound, per cent of control [33]: 58%
- kinase still bound, per cent of control [34]: 90%
- kinase still bound, per cent of control [35]: 94%
- kinase still bound, per cent of control [36]: 70%
- kinase still bound, per cent of control [37]: 12%
- kinase still bound, per cent of control [38]: 96%
- kinase still bound, per cent of control [39]: 75%
- kinase still bound, per cent of control [40]: 96%

Compound: COc1cc2ncnc(Nc3cccc(Cl)c3)c2cc1OC
- kinase still bound, per cent of control [1]: 25%
- kinase still bound, per cent of control [2]: 83%
- kinase still bound, per cent of control [3]: 90%
- kinase still bound, per cent of control [4]: 74%
- kinase still bound, per cent of control [5]: 71%
- kinase still bound, per cent of control [6]: 62%
- kinase still bound, per cent of control [7]: 56%
- kinase still bound, per cent of control [8]: 82%
- kinase still bound, per cent of control [9]: 99%
- kinase still bound, per cent of control [10]: 87%
- kinase still bound, per cent of control [11]: 54%
- kinase still bound, per cent of control [12]: 7%
- kinase still bound, per cent of control [13]: 100%
- kinase still bound, per cent of control [14]: 100%
- kinase still bound, per cent of control [15]: 14%
- kinase still bound, per cent of control [16]: 97%
- kinase still bound, per cent of control [17]: 54%
- kinase still bound, per cent of control [18]: 53%
- kinase still bound, per cent of control [19]: 100%
- kinase still bound, per cent of control [20]: 78%
- kinase still bound, per cent of control [21]: 86%
- kinase still bound, per cent of control [22]: 100%
- kinase still bound, per cent of control [23]: 75%
- kinase still bound, per cent of control [24]: 45%
- kinase still bound, per cent of control [25]: 3.9%
- kinase still bound, per cent of control [26]: 6.8%
- kinase still bound, per cent of control [27]: 71%
- kinase still bound, per cent of control [28]: 49%
- kinase still bound, per cent of control [29]: 67%
- kinase still bound, per cent of control [30]: 37%
- kinase still bound, per cent of control [31]: 80%
- kinase still bound, per cent of control [32]: 61%
- kinase still bound, per cent of control [33]: 26%
- kinase still bound, per cent of control [35]: 90%
- kinase still bound, per cent of control [36]: 67%
- kinase still bound, per cent of control [37]: 87%
- kinase still bound, per cent of control [38]: 76%
- kinase still bound, per cent of control [39]: 18%
- kinase still bound, per cent of control [40]: 92%

Reference: the kinase profiling compilation of Christmann-Franck et al. (2016)
